Experimental data: paper PMC12616683, “In Vivo Atlas of Neuroprotective Cyclic Dipeptides Derived from Food Gelatin Using Peptidomics and Feature-Based Molecular Networking” (Journal of Agricultural and Food Chemistry, 2025)
Square brackets hold non-standard residues; d marks the D form. Peptide text beside a SMILES is read from it. pGlu = O=C1CC[CH](C(=O)O)N1

Assay: FBMN analysis of short peptides in small intestine contents and serum after oral DHG
Settings: for Peptide signal (feature intensity) in the small intestine, 30 min / Peptide signal (feature intensity) in the small intestine, 60 min / Peptide signal (feature intensity) in the small intestine, 120 min / Peptide signal (feature intensity) in the small intestine, 240 min: small intestine contents, C57 mice, FBMN feature intensity, peptides smaller than 690 Da; for Peptide signal (feature intensity) in the small intestine, 30 min: 30 min after oral DHG; for Peptide signal (feature intensity) in the small intestine, 60 min: 60 min after oral DHG; for Peptide signal (feature intensity) in the small intestine, 120 min: 120 min after oral DHG; for Peptide signal (feature intensity) in the small intestine, 240 min: 240 min after oral DHG; for time detected in serum (FBMN): time points 0.5-4 h after oral DHG

| SMILES | Peptide signal (feature intensity) in the small intestine, 30 min | Peptide signal (feature intensity) in the small intestine, 60 min | Peptide signal (feature intensity) in the small intestine, 120 min | Peptide signal (feature intensity) in the small intestine, 240 min | time detected in serum (FBMN) |
| --- | --- | --- | --- | --- | --- |
| CC(C)C[C@H](NC(=O)[C@@H](N)CO)C(=O)N[C@@H](CCCCN)C(=O)O [Ser-Leu-Lys] (H-Ser-Leu-Lys-OH) | 8.94E+05 | 6.69E+05 | 1.60E+06 | 4.59E+06 | – |
| CC(C)CC1NC(=O)C2CC(O)CN2C1=O [cyclo(L-Leu-L-Hyp)] | 9.23E+06 | 0.00E+00 | 5.32E+06 | 2.54E+06 | – |
| CC(C)CC(N)C(=O)NC(Cc1ccccc1)C(=O)O (stereo not drawn) [Leu-Phe] (H-Leu-Phe-OH; configuration not given here) | 6.52E+05 | 9.44E+05 | 8.51E+05 | 0.00E+00 | – |
| O=C1CCC(C(=O)NC(Cc2ccccc2)C(=O)O)N1 (stereo not shown) [PyroGlu-Phe] | 0.00E+00 | 1.13E+07 | 0.00E+00 | 5.69E+06 | only detected in the first hour |
| O=C1CCC(C(=O)N2CCCC2C(=O)O)N1 (stereo not shown) [PyroGlu-Pro] ([pGlu]-Pro-OH; configuration not given here) | 0.00E+00 | 1.75E+07 | 0.00E+00 | 1.91E+07 | – |
| CC(C)CC(NC(=O)C1CCCN1)C(=O)O (stereo not drawn) [Pro-Leu] (H-Pro-Leu-OH; configuration not given here) | 5.47E+07 | 1.43E+07 | 0.00E+00 | 0.00E+00 | – |
| Nc1nc2c(ncn2[C@@H]2O[C@H](CO)[C@@H](O)[C@H]2O)c(=O)[nH]1 [Guanosine] | 8.57E+06 | 2.01E+06 | 0.00E+00 | 0.00E+00 | – |
| CC(C)C[C@H](N)C(=O)N[C@@H](CCC(=O)O)C(=O)N[C@@H](CCCCN)C(=O)O [Leu-Glu-Lys] (H-Leu-Glu-Lys-OH) | 0.00E+00 | 4.20E+05 | 0.00E+00 | 9.49E+05 | – |
| N[C@@H](CCC(=O)O)C(=O)N[C@@H](Cc1ccccc1)C(=O)O [Glu-Phe] | 0.00E+00 | 3.96E+06 | 0.00E+00 | 1.66E+07 | ≥ 4 h |

Next, values leading:

| Peptide signal (feature intensity) in the small intestine, 30 min | Peptide signal (feature intensity) in the small intestine, 60 min | Peptide signal (feature intensity) in the small intestine, 120 min | Peptide signal (feature intensity) in the small intestine, 240 min | time detected in serum (FBMN) | SMILES |
| --- | --- | --- | --- | --- | --- |
| 1.55E+06 | 1.54E+06 | 4.19E+06 | 2.54E+06 | – | CC[C@H](C)[C@H](NC(=O)[C@@H](N)CC(N)=O)C(=O)O [Asn-Ile] (H-Asn-Ile-OH) |
| 5.68E+06 | 2.91E+06 | 7.39E+06 | 1.44E+07 | – | CC(C)C[C@H](NC(=O)[C@@H](N)CC(=O)O)C(=O)O [Asp-Leu] (H-Asp-Leu-OH) |
| 4.66E+05 | 4.22E+05 | 6.61E+05 | 1.64E+06 | – | CC(C)[C@H](N)C(=O)N[C@@H](Cc1c[nH]c2ccccc12)C(=O)O [Val-Trp] (H-Val-Trp-OH) |
| 4.35E+07 | 3.24E+07 | 0.00E+00 | 4.99E+06 | – | CC(C)[C@H](N)C(=O)NCC(=O)N[C@H](C(=O)O)C(C)C [Val-Gly-Val] (H-Val-Gly-Val-OH) |
| 2.94E+06 | 3.78E+06 | 0.00E+00 | 0.00E+00 | – | CC(C)CC(NC(=O)C(N)C(C)C)C(=O)O (stereo not drawn) [Val-Leu] (H-Val-Leu-OH; configuration not given here) |
| 0.00E+00 | 4.18E+07 | 0.00E+00 | 4.47E+07 | – | CC(C)C[C@H](NC(=O)CN)C(=O)O [Gly-Leu] |
| 7.74E+05 | 1.17E+06 | 5.33E+05 | 0.00E+00 | only detected in the first hour | CCC(C)C(NC(=O)C1CCC(=O)N1)C(=O)O (stereo not shown) [PyroGlu-Ile] ([pGlu]-Ile-OH; configuration not given here) |
| 2.64E+06 | 2.44E+06 | 0.00E+00 | 0.00E+00 | ≥ 4 h | CC(C)CC(NC(=O)C(N)Cc1ccccc1)C(=O)O (stereo not drawn) [Phe-Leu] (H-Phe-Leu-OH; configuration not given here) |
| 0.00E+00 | 3.40E+05 | 8.97E+05 | 2.22E+06 | – | CC(C)C[C@H](N)C(=O)N[C@H](C(=O)N[C@@H](CCCCN)C(=O)O)C(C)C [Leu-Val-Lys] (H-Leu-Val-Lys-OH) |
| 6.56E+06 | 7.13E+06 | 0.00E+00 | 0.00E+00 | – | CCC(C)C(N)C(=O)NC(C(=O)O)C(C)O (stereo not drawn) [Ile-Thr] (H-Ile-Thr-OH; configuration not given here) |
| 0.00E+00 | 1.05E+05 | 8.61E+05 | 7.83E+05 | – | CC[C@H](C)[C@H](NC(=O)[C@@H](N)Cc1ccccc1)C(=O)N[C@@H](CCCCN)C(=O)O [Phe-Ile-Lys] (H-Phe-Ile-Lys-OH) |
| 3.33E+05 | 2.00E+05 | 0.00E+00 | 0.00E+00 | – | CC[C@H](C)[C@H](N)C(=O)N[C@H](C(=O)N[C@@H](CCCCN)C(=O)O)[C@@H](C)CC [Ile-Ile-Lys] (H-Ile-Ile-Lys-OH) |
